US20230116399A1, “Tumor Homing Statin Derivatives” (Da Zen Theranostics, Inc., priority 2019, published 2023)

Tests used:
[1] = tested on: H446 human small cell lung cancer (SCLC) cells; experiment: Mouse xenograft model, H446 SCLC; assay type: in vivo, mice; settings: 2.8 mg/kg, twice a week via i.p. injection, 52 days
Protocol: Example 10: THSD (ALSD and ELSD, respectively) are tested in vivo in a mouse xenograft model for human lung cancer. The example is essentially performed as described for example 9 with the following modifications: human SCLC H446 cancer cells are used, and the tested agents include two statin conjugates (compounds of formula FId/compound 14 or “DZ2b” and FIId/compound 7 or “DZ2a”, respectively, designated “DZ-SIM-Ester” or “DZ-SIM-Amide” in FIG. 10), and a non-statin conjugate (“DZ-DHA”). SCLC H446 cells (1.5×10^6) are subcutaneously implanted on the bilateral flanks of athymic nude mice at age of 5 weeks. 10 days post cell implantation, mice are treated with DZ1 (2.8 mg/kg), SIM (2 mg/kg), DZ1-SIM-Amide/compound 7 or DZ1-SIM-Ester/compound 14 (4 mg/kg), and DZ1-DHA (4 mg/kg, DZ1-dihydroartemisinin ester “DZ1-DHA”, as shown in FIG. 11), twice a week via i.p. injection. (A) Tumor sizes are measured by caliper every four days during the treatment period of 52 days, and volumes are calculated using formula […] as described in example 9 above. Confidence levels are indicated as *P<0.05, **P<0.01, ***P<0.0005.

[2] = tested on: 22Rv1 human prostate carcinoma tumors; experiment: Tumor volume of 22Rv1 tumors grown subcutaneously in mice; assay type: in vivo; settings: 5 mg/kg, intravenously injected
Protocol: Example 1D: 22Rv1 human prostate carcinoma cells are cultured as described above, separated from the medium, resuspended in 50% phosphate buffered saline (PBS) and 50% BD Matrigel™ (BD Biosciences, CA), and then the re-suspended cells are injected and grown subcutaneously in mice. […] The decrease of the THSD in the tumors at 2 and 4 weeks, respectively, as determined by NIR signal, is less than about 30%.
Example 1E: 22Rv1 human prostate carcinoma cells are cultured, injected and grown subcutaneously in mice as described above in example 1D. Tumor volume is monitored by measuring the size by caliper and calculating volume as described in example 9 below. The mice are intravenously injected with the following: ALSD of formula FIId, “DZ2a”, compound 7, the corresponding unconjugated dye (here: DZ1), unconjugated Simvastatin, a statin drug (SIM), and docetaxel (DOC), a cancer drug, and a mixture of the ALSD with DOC. Each active was administered in an amount of 5 mg/kg for the ALSD, DZ1, and SIM, except, in case of DOC, 8 mg/kg. A slower rate of increased tumor volume indicates tumor suppressive activity.

22Rv1 cancer cells = experiment: Western blot for polyubiquitinated proteins; assay type: cell-based, human; settings: anti-ubiquitin antibody
Protocol: Example 3D: Proteins are denatured and separated as described in example 3C; on the membrane a western blot is performed using an antibody that targets ubiquitin for detection of polyubiquitinated proteins; the probes include a molecular weight marker (“Marker”), DMSO (vehicle which serves as a control), an unconjugated statin (Simvastatin), an unconjugated dye (DZ1), and the THSD (here ALSD of formula FIId, “DZ2a”, compound 7). […] Thus it is shown that THSD prevent the removal of polyubiquitinated proteins by cancer cells through altered autophagic processes which involve defective lysosomal functions.

[3] = tested on: 22RV1 prostate cancer cells; experiment: Cholesterol levels in whole cells and mitochondria (LC-SIM); assay type: cell-based, human
Protocol: Example 3E: Whole cells and mitochondria are prepared/treated as follows. 22RV1 prostate cancer cells are cultured as described herein-above. The cells are harvested, treated with Lithium dodecyl sulfate (LDS) detergent, then a whole cell fraction and an isolated mitochondrial fraction provided by centrifugation and the pellets are processed to determine their cholesterol levels as follows: cholesterol is extracted with hexane/methanol mixture (7:1, v/v), into which an appropriate amount of stable isotope-labeled d7-cholesterol standard (Avanti Polar Lipids) is spiked. Samples are sonicated in a water-bath, vortexed, and centrifuged at 16,000×g for 5 min at RT. The upper layers are dried down in a SpeedVac at RT. Then samples are incubated with 200 μL 10 mg/mL 4-(dimethylamino)phenyl isocyanate (DMAPI) in dichloromethane and 30 μL triethylamine at 65° C. for 1.5 h in a ThermoMixer. The reaction is quenched by phosphate buffer (pH 8.0), followed by extraction of DMAPI-labeled cholesterol with hexane and vacuum concentration in a SpeedVac. The dry residues are reconstituted in acetonitrile/isopropanol (1:1) and analyzed by liquid chromatography-selected ion monitoring (LC-SIM) using an Ultimate 3000 XRS liquid chromatography system connected to an Orbitrap Fusion Lumos mass spectrometer (Thermo Scientific). Following separation on a 5-cm Hypersil GOLD C18 column, DMAPI-derivatized endogenous cholesterol (m/z 549.442) and d7-cholesterol (m/z 556.485) are analyzed by time-scheduled SIM analysis on an Orbitrap Fusion Lumos. The acquired LC-SIM data are analyzed by Skyline for cholesterol quantification.

| Compound | mean tumor volume / growth inhibition [1] | tumor suppressive activity (tumor volume increase) [2] | ubiquitin signal (polyubiquitinated proteins) (22Rv1 cancer cells) | Cholesterol, mitochondria ([3]; mitochondrial fraction) | Cholesterol, mitochondria, relative to vehicle control (100%) ([3]; mitochondrial fraction) | Cholesterol, mitochondria, relative to vehicle control (100%) ([3]; mitochondrial fraction, listed as SIM) | Cholesterol, whole cells ([3]; whole cells) | Cholesterol, whole cells, relative to vehicle control (100%) ([3]; whole cells) | Cholesterol, whole cells, relative to vehicle control (100%) ([3]; whole cells, listed as SIM) |
| --- | --- | --- | --- | --- | --- | --- | --- | --- | --- |
| CC1(C)C(/C=C/C2=C(Cl)C(=C/C=C3/N(CCCCCC(=O)O)c4ccccc4C3(C)C)/CCC2)=[N+](CCCCS(=O)(=O)[O-])c2ccccc21 [DZ1] | steep increase in tumor volume | no significant tumor suppressive activity | much weaker signals and less of a smear | – | – | – | – | – | – |
| CCC(C)(C)C(=O)O[C@H]1C[C@@H](C)C=C2C=C[C@H](C)[C@H](CC[C@@H]3C[C@@H](O)CC(=O)O3)[C@H]21 [Simvastatin] | – | – | – | 56 nmol Cholesterol per 10^7 cells | 51% | (51%) | 102 nmol Cholesterol per 10^6 cells | 88% | (88%) |
